Measured values published in ChEMBL document CHEMBL6087467, “Probing the Histamine H1 Receptor Binding Site to Explore Ligand Binding Kinetics” (J Med Chem, 2025).

How the values were obtained:
[1] = target: T1, Histamine H1 receptor (Homo sapiens, UniProt P35367); assay type: cell-based; conditions: hek293t
[2] = target: T1, Histamine H1 receptor; conditions: HEK293T, time 4.0 hrs
[3] = target: T1, Histamine H1 receptor; conditions: HEK293T, time 4.0 hrs; remark: listed apart in the source
[4] = target: T1, Histamine H1 receptor; assay: biochemical; assay type: cell-based, HEK293T
Description: Displacement of [3H]-mepyramine from human histamine H1 receptor expressed in HEK293T cells assessed as inhibition constant incubated for 4 hrs by competitive binding assay

[5] = target: T1, Histamine H1 receptor; assay: biochemical; assay type: cell-based, HEK293T; remark: listed apart in the source
Description: Displacement of [3H]-mepyramine from human histamine H1 receptor expressed in HEK293T cells assessed as dissociation constant incubated for 4 hrs by competitive binding assay

T1 sequence (P35367 whole entry): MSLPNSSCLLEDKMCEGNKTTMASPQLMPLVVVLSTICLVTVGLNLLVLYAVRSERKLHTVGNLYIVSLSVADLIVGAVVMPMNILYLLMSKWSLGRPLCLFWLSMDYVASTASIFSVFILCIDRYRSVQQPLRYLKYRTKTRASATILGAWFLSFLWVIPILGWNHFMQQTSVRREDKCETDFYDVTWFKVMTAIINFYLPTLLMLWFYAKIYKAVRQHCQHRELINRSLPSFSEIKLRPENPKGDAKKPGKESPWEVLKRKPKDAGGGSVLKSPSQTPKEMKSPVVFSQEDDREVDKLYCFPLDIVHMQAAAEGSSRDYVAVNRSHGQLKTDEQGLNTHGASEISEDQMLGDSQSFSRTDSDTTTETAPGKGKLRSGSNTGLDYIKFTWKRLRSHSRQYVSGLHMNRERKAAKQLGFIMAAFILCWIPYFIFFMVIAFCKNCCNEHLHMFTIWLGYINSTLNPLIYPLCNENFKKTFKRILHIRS

| Dissociation rate constant (koff) [1] [s⁻¹] | Ka [2] | Retention time [3] [min] | Ki [4] [nM] | Kd [5] [nM] | Compound |
| --- | --- | --- | --- | --- | --- |
| 0.004 | 0.5 10^6/M/min | 4.2 |  |  | CN1CCC(Oc2c(Cc3ccccc3)cccc2C(=O)O)CC1 |
| 0.00115 | 2.37 10^6/M/min | 15 |  |  | O=C(O)CCCCCCCN1CCC(Oc2ccccc2Cc2ccccc2)CC1 |
|  | 36 10^6/M/min |  |  |  | Cc1ccc(/C(=C\CN2CCCC2)c2ccccn2)cc1 [TRIPROLIDINE] |
| 0.00183 | 2.9 10^6/M/min | 9 |  |  | O=C(O)CCN1CCC(Oc2ccccc2Cc2ccccc2)CC1 |
| 0.001 | 4 10^6/M/min | 17 |  |  | O=C(O)CCCCCN1CCC(Oc2ccccc2Cc2ccccc2)CC1 |
| 0.0017 | 2.9 10^6/M/min | 10 |  |  | O=C(O)CCCN1CCC(Oc2ccccc2Cc2ccccc2)CC1 |
| 0.000917 | 0.62 10^6/M/min | 18 |  |  | CN1CCC(Oc2cc(/C=C/C(=O)O)ccc2Cc2ccccc2)CC1 |
|  | 1.9 10^6/M/min | 190 |  |  | CN(C)CC/C=C1/c2ccccc2COc2ccc(CC(=O)O)cc21 |
| 0.017 | 0.06 10^6/M/min | 1.2 |  |  | CN1CCC(Oc2cc(C(=O)O)ccc2Cc2ccccc2)CC1 |
|  | 160 10^6/M/min | 2 |  |  | CN1CCC(Oc2ccccc2Cc2ccccc2)CC1 |
| 0.00075 | 3.2 10^6/M/min | 23 |  |  | O=C(O)CCCCN1CCC(Oc2ccccc2Cc2ccccc2)CC1 |
| 0.00138 | 2.08 10^6/M/min | 12.1 | 39.8 | 39.8 | CC(=O)Cc1cccc(Cc2ccccc2)c1OC1CCN(C)CC1 |
|  | 1.4 10^6/M/min |  |  |  | O=C(O)COCCN1CCN([C@H](c2ccccc2)c2ccc(Cl)cc2)CC1 |
| 0.000917 | 1.6 10^6/M/min | 3 |  |  | CN1CCC(Oc2c(/C=C/C(=O)O)cccc2Cc2ccccc2)CC1 |
| 0.00283 | 1.3 10^6/M/min | 6 |  |  | CN1CCC(Oc2cc(CC(=O)O)ccc2Cc2ccccc2)CC1 |
| 0.00035 | 3.7 10^6/M/min | 48 |  |  | c1ccc(Cc2ccccc2OC2CCN(CCCCc3nnn[nH]3)CC2)cc1 |
| 0.0122 | 27 10^6/M/min | 1.4 |  |  | CN1CCC(Oc2c(CO)cccc2Cc2ccccc2)CC1 |
| 0.00127 | 2.5 10^6/M/min | 13 |  |  | O=C(O)CCCCCCN1CCC(Oc2ccccc2Cc2ccccc2)CC1 |

| Compound | Dissociation rate constant (koff) [1] [s⁻¹] | Ka [2] | Retention time [3] [min] | Ki [4] [nM] | Kd [5] [nM] |
| --- | --- | --- | --- | --- | --- |
| COc1ccc(Cc2ccccc2)c(OC2CCN(C)CC2)c1 | 0.0083 | 60 10^6/M/min | 2 |  |  |
| CN1CCC(Oc2cc(CO)ccc2Cc2ccccc2)CC1 | 0.00417 | 98 10^6/M/min | 4 |  |  |
